This note sets out measurements from patent publication US20240300945A1, “CLY SERIES COMPOUND, PREPARATION METHOD THEREFOR AND USE THEREOF IN PREPARATION OF DRUGS” (NANJING WELLBEST PHARMACEUTICAL CO., LTD, priority 2021, published 2024).

One experiment deals with mouse eczema model. Kind of experiment: Mouse eczema model: ear thickness. The format is in vivo, C57BL/6 mice. The conditions noted are these: after modeling, 14th day; 0.1% cream for external use twice a day, 10 days (positive: aloxone). An excerpt: Preparation method of CLY cream: the matrix components included methyl silicone oil (15%), stearic acid (6%), white vaseline (5%), liquid paraffin (5%), octadecanol (5%), glycerin (20%), alkyl aryl polyglycol ether (1%), fatty alcohol polyoxyethylene ether (1%), Tween-807 (1%), ethyl paraben (0.1%), distilled water (about 31-55%), and it was mixed with an appropriate amount of CLY series compound liquid to form a mixed emulsion. The cream matrix used in this embodiment refers to the matrix components after the active ingredients were removed from the cream.
(§1) SPF grade female C57BL/6 mice were purchased at the age of 8 weeks (0.02 kg), 6 in each group, and randomly divided into the blank control group, model group, positive drug group, CLY-1 treatment group (0.1% CLY-1 cream for external use), CLY-2 treatment group (0.1% CLY-2 cream for external use), CLY-3 treatment group (0.1% CLY-3 cream for external use), CLY-4 treatment group (0.1% CLY-4 cream for external use), CLY-8 treatment group (0.1% CLY-8 cream for external use), CLY-11 treatment group (0.1% CLY-11 cream for external use) CLY-19 treatment group (0.1% CLY-19 cream for external use), CLY-36 treatment group (0.1% CLY-36 cream for external use) and CLY-39 treatment group (0.1% CLY-39 cream for external use).
(§2) Model establishment: the normal control group mice were smeared with 75% ethanol 14.3 ul on both ears, while the model group, positive drug group and treatment group were smeared with 1 nmol/L carpotriol liniment 14.3 ul on both ears at a regular time every day, and then smeared with 20 g/L OVA 25 ul after air drying, once a day, for 12 days to make a model.
(§3) From 4 days after the start of modeling, applied the cream matrix on the ear skin of mice in the blank control group and the model group, applied aloxone on the ear skin of mice in the positive drug group, and applied the treatment cream on the ear skin of mice in each treatment group respectively, twice a day in the morning and evening, for 10 consecutive days, took photos every day, and recorded scores.
(§4) The thickness of mouse auricle was measured and recorded with ear thickness measuring instrument before and on the 14th day respectively. After the measurement on the 14th day, the mice were sacrificed. Blood was taken and serum was separated.

For experiment [1], the system named is skin hair follicles and sebaceous glands of rats. The experiment in a line: Rat hair loss model: histopathological grading of skin hair follicles and sebaceous glands. The conditions noted are these: 60 days, 10 rats per group; for number of rats with hair follicle and sebaceous gland grade +++: grade +++ (most severe); for number of rats with hair follicle and sebaceous gland grade ±: grade ± (lesions limited); for number of rats with hair follicle and sebaceous gland grade −: grade − (normal structure). It is filed as in vivo, Wistar rats. The text has this:
Wistar rats were, according to weights, randomly divided into the negative control group (75% ethanol for external use), model group (75% ethanol for external use), positive control group (external 5% minoxidil tincture), CLY-1 external treatment group (external 5% CLY-1 tincture), CLY-2 external treatment group (external 5% CLY-2 tincture), CLY-3 external treatment group (external 5% CLY-3 tincture), CLY-4 external treatment group (external 5% CLY-4 tincture), and CLY-5 external treatment group (external 5% CLY-5 tincture) according to their body weight CLY-8 external treatment group (external 5% CLY-8 tincture), CLY-11 external treatment group (external 5% CLY-11 tincture), CLY-19 external treatment group (external 5% CLY-19 tincture), CLY-36 external treatment group (external 5% CLY-36 tincture), CLY-39 external treatment group (external 5% CLY-39 tincture), CLY-1 intravenous injection group (2 mg/kg·d), CLY-3 intravenous injection group (2 mg/kg·d), CLY-4 intravenous injection group (2 mg/kg·d) CLY-5 intravenous injection group (2 mg/kg·d), CLY-8 intravenous injection group (2 mg/kg·d), CLY-11 intravenous injection group (2 mg/kg·d), CLY-19 intravenous injection group (2 mg/kg·d), CLY-36 intravenous injection group (2 mg/kg·d), and CLY-39 intravenous injection group (2 mg/kg·d), with 10 rats in each group. Before the experiment, an area of 4 cm×5 cm was selected on each rat on the back of the neck to remove hair as the observation area. In addition to the negative control group, rats were subcutaneously injected with testosterone propionate injection [5 ml/(kg·d)] once a day for 60 days to establish the androgenic alopecia (AGA) model. […] At the same time, the drug was applied to the observation area on the back of the rats in the corresponding drug group at the rate of 2 mL/(one time), twice a day, at an interval of 8 hours; Intravenous administration once a day. The negative control group and the model control group were smeared with 75% ethanol solution, 2 mL/(one rat per time), twice a day, for 60 days.
Took 10 hairs from the observation area on the back of each rat every 15 days after administration, and measured the hair length with a vernier caliper. After 60 days of administration, the skin of the experimental observation area was taken for routine tissue dehydration, paraffin embedding, HE staining, and light microscopy to observe the histopathological changes of the rat skin hair follicles and sebaceous glands. Semi-quantitative analysis was performed for each group. The grading criteria are as follows: the normal structure of dermal tissue cells, subcutaneous hair follicles, and sebaceous glands is marked as […]: no hyperplasia of dermal tissue is found, the lesions of hair follicles and sebaceous glands are limited, and no inflammation is found under the skin is marked as “+”: no obvious hyperplasia of dermal tissue is found, and the follicles are obviously cystic. No obvious hyperplasia of sebaceous glands is found, and no inflammation is found under the skin is marked as “+”: the dermal tissue has segmental hyperplasia, which is not obvious, A small number of hair follicles have cystic changes, and the sebaceous glands have mild hyperplasia and hypertrophy. There is no obvious inflammation under the skin, which is marked as “++”: the dermal tissue cells of the skin have different degrees of segmental hyperplasia, and some hair follicles have cystic changes, showing uneven size of hair follicles, and no cells around. The sebaceous glands have hyperplasia, and the nuclei in the proliferative glands are few. A few rats have mild inflammatory hyperplasia under the skin, which is marked as “+++”.

A further experiment concerns serum IL-4. The experiment in a line: Mouse eczema model: serum IL-4 (ELISA). The format is in vivo, C57BL/6 mice. As to conditions: after modeling, 0.1% cream for external use twice a day, 10 days (positive: aloxone).
Excerpt: as §1, §2, §3, §4
The enzyme-labeled plate was coated with rabbit anti-mouse interleukin (IL)-4 antibody, stayed at 4° C. overnight, and the reaction was stopped according to the instructions of the ELISA kit to detect the level of serum IL-4. ELISA kits were all purchased from Raybiotech, USA.

Turning to `O=C(c1ccc(-n2nnc3cccnc32)cc1)N(c1ncccc1Cl)[C@@H]1CCNC1` [CLY-8, (R)-4-(3H-[1,2,3]triazolo[4,5-b]pyridin-3-yl)-N-(3-chloropyridin-2-yl)-N-(pyrrolidin-3-yl)benzamide], in the experiment on mouse eczema model, the Ear thickness is recorded as 0.245 mm. For the same molecule, in experiment [1] (external 5% tincture), the “number of rats with hair follicle and sebaceous gland grade +++” value was 0; the “number of rats with hair follicle and sebaceous gland grade ++” value is listed as 0; the “number of rats with hair follicle and sebaceous gland grade +” value was found to be 3; the “number of rats with hair follicle and sebaceous gland grade ±” value was 7. For the same molecule, the “number of rats with hair follicle and sebaceous gland grade −” value in experiment [1] (external 5% tincture) was found to be 0. In experiment [1] (intravenous 2 mg/kg·d), the “number of rats with hair follicle and sebaceous gland grade +++” value is 0; the “number of rats with hair follicle and sebaceous gland grade ++” value turned out to be 0; the “number of rats with hair follicle and sebaceous gland grade +” value is recorded as 2; the “number of rats with hair follicle and sebaceous gland grade ±” value is reported as 8. The “number of rats with hair follicle and sebaceous gland grade −” value in experiment [1] (intravenous 2 mg/kg·d) worked out at 0. The “IL-4 level in peripheral blood” value with serum IL-4 is 5.53 pg/mL.

The molecule `NC1CCCC(N(C(=O)c2ccc(-n3nnc4cccnc43)cc2)c2ncccc2Cl)C1` (stereo not drawn) [CLY-11] came in with an Ear thickness in the experiment on mouse eczema model of 0.278 mm. In experiment [1] (external 5% tincture), the “number of rats with hair follicle and sebaceous gland grade +++” value turned out to be 0; the “number of rats with hair follicle and sebaceous gland grade ++” value was determined as 1; the “number of rats with hair follicle and sebaceous gland grade +” value is 4; the “number of rats with hair follicle and sebaceous gland grade ±” value is listed as 5. Besides, in experiment [1] (external 5% tincture), the “number of rats with hair follicle and sebaceous gland grade −” value stood at 0. Also, in experiment [1] (intravenous 2 mg/kg·d), the “number of rats with hair follicle and sebaceous gland grade +++” value is given as 0; the “number of rats with hair follicle and sebaceous gland grade ++” value is recorded as 1; the “number of rats with hair follicle and sebaceous gland grade +” value amounted to 3; the “number of rats with hair follicle and sebaceous gland grade ±” value turned out to be 6. For the same molecule, in experiment [1] (intravenous 2 mg/kg·d), the “number of rats with hair follicle and sebaceous gland grade −” value was 0. Further, the “IL-4 level in peripheral blood” value in the experiment on serum IL-4 worked out at 6.45 pg/mL.

As to `O=C(c1ccc(-c2ccccc2-c2nnn[nH]2)cc1)N(c1ncccc1Cl)[C@@H]1CCCNC1` [CLY-19], the Ear thickness in the experiment on mouse eczema model is 0.253 mm. Besides, in experiment [1] (external 5% tincture), the “number of rats with hair follicle and sebaceous gland grade +++” value was 0; the “number of rats with hair follicle and sebaceous gland grade ++” value is 2; the “number of rats with hair follicle and sebaceous gland grade +” value is 3; the “number of rats with hair follicle and sebaceous gland grade ±” value was 5. The “number of rats with hair follicle and sebaceous gland grade −” value in experiment [1] (external 5% tincture) was found to be 0. Besides, in experiment [1] (intravenous 2 mg/kg·d), the “number of rats with hair follicle and sebaceous gland grade +++” value was determined as 0; the “number of rats with hair follicle and sebaceous gland grade ++” value came to 2; the “number of rats with hair follicle and sebaceous gland grade +” value was determined as 2; the “number of rats with hair follicle and sebaceous gland grade ±” value is reported as 6. In addition, the “number of rats with hair follicle and sebaceous gland grade −” value in experiment [1] (intravenous 2 mg/kg·d) was 0. Also, in the experiment with serum IL-4, the “IL-4 level in peripheral blood” value was 5.72 pg/mL.

Regarding `O=C(c1ccc(-c2ccccc2Cl)cc1)N(c1ncccc1Cl)[C@@H]1CCCNC1` [CLY-36], the Ear thickness in the experiment with mouse eczema model was found to be 0.248 mm. Besides, in experiment [1] (external 5% tincture), the “number of rats with hair follicle and sebaceous gland grade +++” value came to 0; the “number of rats with hair follicle and sebaceous gland grade ++” value was determined as 3; the “number of rats with hair follicle and sebaceous gland grade +” value is recorded as 2; the “number of rats with hair follicle and sebaceous gland grade ±” value worked out at 5. The “number of rats with hair follicle and sebaceous gland grade −” value in experiment [1] (external 5% tincture) stood at 0. Further, in experiment [1] (intravenous 2 mg/kg·d), the “number of rats with hair follicle and sebaceous gland grade +++” value turned out to be 0; the “number of rats with hair follicle and sebaceous gland grade ++” value was determined as 3; the “number of rats with hair follicle and sebaceous gland grade +” value is 1; the “number of rats with hair follicle and sebaceous gland grade ±” value is 6. The “number of rats with hair follicle and sebaceous gland grade −” value in experiment [1] (intravenous 2 mg/kg·d) is listed as 0. The “IL-4 level in peripheral blood” value with serum IL-4 came out at 5.86 pg/mL.

`O=C(c1ccc(-n2nnc3cccnc32)cc1)N(c1ncccc1Cl)C1CCCC(O)C1` (stereo not drawn) [CLY-4] had an Ear thickness with mouse eczema model of 0.323 mm. Moreover, in experiment [1] (external 5% tincture), the “number of rats with hair follicle and sebaceous gland grade +++” value was found to be 0; the “number of rats with hair follicle and sebaceous gland grade ++” value stood at 3; the “number of rats with hair follicle and sebaceous gland grade +” value is recorded as 4; the “number of rats with hair follicle and sebaceous gland grade ±” value was determined as 3. Also, in experiment [1] (external 5% tincture), the “number of rats with hair follicle and sebaceous gland grade −” value amounted to 0. In experiment [1] (intravenous 2 mg/kg·d), the “number of rats with hair follicle and sebaceous gland grade +++” value amounted to 0; the “number of rats with hair follicle and sebaceous gland grade ++” value came to 1; the “number of rats with hair follicle and sebaceous gland grade +” value is listed as 5; the “number of rats with hair follicle and sebaceous gland grade ±” value was 4. Also, the “number of rats with hair follicle and sebaceous gland grade −” value in experiment [1] (intravenous 2 mg/kg·d) worked out at 0. Besides, the “IL-4 level in peripheral blood” value in the experiment on serum IL-4 is 7.51 pg/mL.
